{
  "source": "patent US11103486B2",
  "about": "“Treatment of autoimmune disorders and infections using antagonists of SGK1 activity” (THE JOHNS HOPKINS UNIVERSITY, priority 2011, dated 2021)",
  "tested_on": "JunB",
  "assay": "JunB protein levels by immunoblot of nuclear extracts of CD4+ T cells activated under Th2 skewing conditions",
  "assay_type": "cell-based, mice",
  "details": "T-SGK1−/− CD4+ T cells activated under Th2 skewing conditions; MG132 added during the final 2 hours of stimulation",
  "experimental": "(11A) Nuclear and cytoplasmic extracts from Wt and T-SGK1−/− CD4+ T cells. Cells were purified by magnetic separation and stimulated for 72 hours in vitro with anti-CD3 and anti-CD28 and either (Th1) IL-12, IFN-γ, and anti-IL-4, or (Th2) IL-4, anti-IFN-γ, and anti-IL-12p40 skewing conditions. Cells were lysed and separated into nuclear and cytoplasmic fractions. Nuclear extracts were blotted for the expression of JunB, and Lamin B is included as a loading control. Cytosolic fractions were blotted to measure the E3 ligase activity of NEDD4L (S342), and actin is included as a loading control. (11B) Nuclear extract of Wt and T-SGK1−/− treated with MG132. As in A, but with the addition of the proteasome inhibitor MG-132 during the final 2 hours of stimulation. Nuclear fractions were blotted for JunB. (11C) Immunoprecipitates (IPs) of JunB from Wt and T-SGK1−/− CD4+ T cells skewed with IL4 and treated with MG132. As in B, but nuclear fractions were subject to IP with JunB antibody. […] Fold induction of long and short isoforms of TCF1 over no stimulation control, as analyzed by quantitative polymerase chain reaction. […] Cells were restimulated for 4 hours with phorbol 12-myristate 13-acetate (PMA) and ionomycin in the presence of a protein transport inhibitor, and analyzed for production of IFN-γ by intracellular staining. […]",
  "note": "Where a SMILES comes first, the peptide text is derived from it. The star is where a group is joined. Cbz = O=C(OCc1ccccc1)*",
  "data": [
    {"smiles": "CC(C)C[C@@H](C=O)NC(=O)[C@H](CC(C)C)NC(=O)[C@H](CC(C)C)NC(=O)OCc1ccccc1", "note": "[MG132] (Cbz-Leu-Leu-Leu-aldehyde)", "values": [
      {"measurement": "JunB levels (immunoblot, nuclear fraction)", "result": "JunB levels increased"}
    ]}
  ]
}
